Values of other authors, collected in patent publication US20130183261A1, “METHOD AND COMPOSITION FOR DELIVERING ACTIVE INGREDIENT INTO AIR, AND USE THEREOF” (priority 2010, published 2013).

Conditions: at 25° C.; neat solvent

## CCCOC(C)COC(C)CO (stereo not shown) [DPnP, dipropylene glycol n-propyl ether]
  Viscosity: 11.4 mPa·s
